Test results reported in patent US20090085344A1, “Organic fluorescent sulfonyl ureido benzoxazinone pigments” (Honeywell International Inc., priority 2007, published 2009).

How the values were obtained:
Assay type in all cases: physicochemical
[1] = Solubility of the powder in 2-butanone; conditions: room temperature
Description: (§1) In accordance with the present disclosure, 1-(para-toluenesulfonyl)-3-[2-(4-oxo-4H-benzo[d][1,3]oxazine-2-yl)-phenyl]urea, also named 1-(4-methylphenylsulfonyl)-3-[2-(4-oxo-4H-benzo[d][1,3]oxazine-2-yl)-phenyl]urea, where R^1, R^2, R^3 and R^4 are each hydrogen, and R^5 is 4-methylphenyl, was prepared according to the following procedure: A 250 mL three-neck bottle was charged at room temperature with anthranoylanthranilic acid (0.05 mol) and 100 mL methyl ethyl ketone. Para-toluenesulfonyl isocyanate (0.05 mol) was then added, with stirring, and the reaction mixture was heated under reflux at about 80° C. for about 4 hours. Thereafter, the resulting suspension was cooled to about 40° C., and acetic anhydride (40 mL) was added. The resulting mixture was heated for an additional 3 hours. After cooling to about 10° C., the precipitate was filtered under suction, washed with acetone, and dried at about 50° C. under atmospheric pressure to produce a white powder in about 70% -85% yield. The Emission (fluorescence) maximum of the resultant powder was 526 nm. The excitation maximum is/was 380 nm. […] Intensity of fluorescence of the powder was 350 cd/m^2, as measured with a Minolta luminance meter under 365 nm excitation. Solubility of the powder in 2-butanone was less than 0.5% at room temperature.

[2] = Lightfastness: relative intensities at 0 hours and after 104 hours (FIGS. 1 and 2); conditions: compared with Lumilux CD 397 and Lumilux CD 302
Description: FIG. 1 is a comparative bar graph of the lightfastness of 1-(para-toluenesulfonyl)-3-[2-(4-oxo-4H-benzo[d]-[1,3]oxazine-2-yl)-phenyl]urea (compound 7), as compared with aliphatic ureidobenzoxazinone (UBO)(compound 11), Nitril-AUBO (compound 33), Lumiluxg CD 397, and Lumilux® CD 302, by measuring relative intensities at 0 hours and after 104 hours.
FIG. 2 is a comparative bar graph of the percent (%) loss of intensity of lightfastness of 1-(para-toluenesulfonyl)-3-[2-(4-oxo-4H-benzo[d]-[1,3]oxazine-2-yl)-phenyl]urea (compound 7) relative to compound 11, compound 33, Lumilux® CD 397, and Lumilux® CD 302.
Referring now to the Figures, FIG. 1 illustrates a comparative bar graph of the intensity of lightfastness (in cd/m^2) of 1-(para-toluenesulfonyl)-3-[2-(4-oxo-4H-benzo[d]-[1,3]oxazine-2-yl)-phenyl]urea (compound 7), which is shown relative to various ureido benzoxazinone compounds (UBO), such as aliphatic UBO (compound 11), Nitril-AUBO (compound 33), and Lumilux® CD 397 and Lumilux® CD 302.
FIG. 2 is a comparative bar graph illustrating of the percent loss of intensity of lightfastness of 1-(para-toluenesulfonyl)-3-[2-(4-oxo-4H-benzo[d]-[1,3]oxazine-2-yl)-phenyl]urea (compound 7) compared with ureido benzoxazinone compounds (UBO) such as compound 11, compound 33, Lumilux® CD 397 and Lumiluxg CD 302.

[3] = Intensity of fluorescence of the powder, Minolta luminance meter under 365 nm excitation
Description: as §1

[4] = Fluorescence emission and excitation maxima of the powder
Text: The benzoxazinone compounds of the present disclosure are colorless, and fluoresce in the visible region. More specifically, the benzoxazinone compounds of the present disclosure produce a bright emission in a region from about 520 nm to about 540 nm wavelength when irradiated by UV light energy at about 366 nm wavelength. The benzoxazinone compounds have an excitation maximum at about 340 nm to about 420 nm wavelength.
as §1

| SMILES | Solubility of the powder in 2-butanone [1] | degree (intensity) of lightfastness ([2]; 0 hours and after 104 hours) | loss of lightfastness intensity ([2]; after 104 hours) | Intensity of fluorescence of the powder [3] | Emission (fluorescence) maximum of the resultant powder [4] | excitation maximum [4] |
| --- | --- | --- | --- | --- | --- | --- |
| Cc1ccc(S(=O)(=O)NC(=O)Nc2ccccc2-c2nc3ccccc3c(=O)o2)cc1 [Example 1, 1-(para-toluenesulfonyl)-3-[2-(4-oxo-4H-benzo[d]-[1,3]oxazine-2-yl)-phenyl]urea] | less than 0.5% | greater degree (intensity) of lightfastness | lower loss of lightfastness intensity | 350 cd/m^2 | 526 nm | 380 nm |
| O=C(Nc1ccccc1-c1nc2ccccc2c(=O)o1)NS(=O)(=O)c1ccccc1 [Example 2, 1-(phenylsulfonyl)-3-[2-(4-oxo-4H-benzo[d]-[1,3]oxazine-2-yl)-phenyl]urea] | less than 0.5% | – | – | 320 cd/m^2 | 528 nm | 380 nm |
| Cc1ccccc1S(=O)(=O)NC(=O)Nc1ccccc1-c1nc2ccccc2c(=O)o1 [Example 3, 1-(2-methylphenylsulfonyl)-3-[2-(4-oxo-4H-benzo[d]-[1,3]oxazine-2-yl)-phenyl]urea] | less than 1% | – | – | 260 cd/M^2 | 530 nm | 380 nm |
| O=C(Nc1ccccc1-c1nc2ccccc2c(=O)o1)NS(=O)(=O)c1ccc(Cl)cc1 [Example 4, 1-(4-chlorophenylsulfonyl)-3-[2-(4-oxo-4H-benzo[d]-[1,3]oxazine-2-yl)-phenyl]urea] | less than 0.5% | – | – | 330 cd/m^2 | 539 nm | 380 nm |
